Common to all, as to type: cell-based
The test system of data set [1] is 3D model of human airway epithelium. As to the kind of experiment: IL-8 ELISA on basal medium of bradykinin-stimulated 3D airway epithelia (MucilAir, MatTek). As to the method: (§1) Various compositions were tested for their ability to protect a 3D model of human airway epithelium, constituted with primary human epithelial cells freshly isolated from nasal (MucilAir™ nasal pool), or tracheal or bronchial biopsies (MatTek PE-200-6.5). MucilAir™ and MatTek tissues are reconstituted human 3D tissue from airways and lung surgical pieces, fully differentiated, pseudostratified in vitro epithelium. MucilAir™_Pool is of nasal polyp origin and reconstituted with a mixture of cells isolated from 14 different donors. […] MatTek tissues are from tracheo-bronchial origin. The respiratory epithelium lining the nose and throat have very similar histology and architecture. These two different models reconfirm that models from different origin have similar responses to treatment in the case that one model may have more underlying inflammation, or other variability with respect to its retrieval than another.
(§2) Compositions were formulated with various concentrations of acetylsalicylic acid (ASA 0.6 mg/ml or ASA 6 mg/ml) in an aqueous saline solution vehicle such as 0.9% NaCl, 1.25 mM CaCl2, 10 mM HEPES. 10 μL of each formulation was added apically either to the MucilAir™ or MatTek tissues. Formulations were either added 10 minutes after activation of an inflammatory response in the media (FIGS. 1A-B, 3A, 4A), or 5 minutes before activation of an inflammatory response in the media (FIGS. 2A-B, 3B, 4B). Due to the rate of saliva production and concomitant dilution of acetylsalicylic acid on the mucosa, administration of each concentration in vitro correlates to a 10× concentration in product form. For example, 0.6 mg/ml ASA in the in vitro measurements corresponds administration of 6 mg/ml ASA in compositions, and 6 mg/ml […] corresponds to administration of 60 mg/ml in compositions.
(§3) Typically, the inflammatory cytokine bradykinin stimulates the prostaglandin pathway (through arachidonic acid) which then stimulates IL-8, another inflammatory cytokine. […] The inflammatory response of the prostaglandin pathway was stimulated through the addition of 10 μL of 25 mg/ml bradykinin protein was applied to the apical side of the MucilAir™ media.
(§4) Four hours following bradykinin application various measurements of the inflammatory response were measured. Epithelia were washed twice with MucilAir™ culture medium in order to clean the inoculum. Liquid aliquots from the basal medium were collected and stored at −80° C. for future study.
(§5) Prostaglandin E2 or IL-8 enzyme-linked immunosorbent assays (ELISA) were performed on the liquid aliquots from the basal medium to determine the amount of prostaglandin E2 produced as a result of inflammatory conditions initiated in each test condition. […] Although, acetylsalicylic acid is typically administered in doses greater than these measured, this dosage increased the inflammatory response.
MatTek (tracheal bronchial tissue) or MucilAir (nasal polyps) 3D inserts were placed in pre-warmed media corresponding to each cell system and incubated for 15 minutes at 37° C. L of saliva (negative control) or treatment was added to the apical surfaces. 5 minutes later, 10 μL of saliva or bradykinin was added to the apical side as well. Bradykinin was obtained from Tocris or New England Peptide (NEP) as indicated. At 4 hours, samples from the basal media were collected and frozen at −80° for PGE-2 ELISA measurements. […] TEER was measured again at 48 hours. […]
A general note: In an ELISA, binding on a coated surface is turned into a signal by an enzyme label.

The test system is the same in data set [2]. As to the kind of experiment: Prostaglandin E2 ELISA on basal medium of bradykinin-stimulated 3D airway epithelia (MucilAir, MatTek). As to the method:
as §1, §2, §3, §4, §5
MatTek (tracheal bronchial tissue) or MucilAir (nasal polyps) 3D inserts were placed in pre-warmed media corresponding to each cell system and incubated for 15 minutes at 37° C. L of saliva (negative control) or treatment was added to the apical surfaces. 5 minutes later, 10 μL of saliva or bradykinin was added to the apical side as well. Bradykinin was obtained from Tocris or New England Peptide (NEP) as indicated. At 4 hours, samples from the basal media were collected and frozen at −80° for PGE-2 ELISA measurements. At 24 hours, the inserts were moved to fresh basal media (corresponding to each cell system) and 200 L of media were added to each apical side for TEER analysis as described previously. The plate was then incubated for 5 minutes. Following TEER measurements, the apical solution was removed and 10 μL of each treatment (or saliva) was added to the apical surface. No bradykinin was added. TEER was measured again at 48 hours. Additionally, at 24 hours and 48 hours, basal media was collected and frozen for IL-8 and LDH analyses. […]

For data set [3] the test system is unchanged. To be noted: 48 h, 6 mg/ml. The protocol: as §1, with “another. […]” for “another.”
Tissue integrity was also monitored using transepithelial electrical resistance (“TEER”) measurements. […]
For TEER measurements, 200 μL of warm MucilAir™ media or MatTek TEER buffer was applied on the apical side of each insert. […] The resistance (Ω) is read on the Voltohmmeter and the TEER value was calculated with the following formula: TEER (Ω·cm^2)=(resistance value (Ω)−100 (Ω))×0.33 (cm^2). […]

The mark [4] stands for this setting: dose above the therapeutic window.
Setting [5] is: overall statement, concentration not given.

For the molecule `CC(=O)Oc1ccccc1C(=O)O` [ASA, acetylsalicylic acid], the IL-8 concentration result in data set [1] (0.6 mg/ml ASA, therapeutic and prophylactic modalities (FIGS. 4A, 4B)) is on record as “A similar result was not observed”; in data set [1] (6 mg/ml ASA, prophylactic modality (added before bradykinin, FIG. 4B)) it was “significantly greater”; in data set [1] (6 mg/ml ASA, therapeutic modality (added after bradykinin, FIG. 4A)) it was “significantly greater”. Besides, in data set [1] (setting [4]), the “IL-8 relative to maximum bradykinin-induced level” value is recorded as “increased”. Further, the “levels of IL-8 protein” value in data set [1] (setting [5]) is on record as “did not appreciably decrease”. The “prostaglandin E2 production (inflammatory response) versus positive control” value is “did inhibit inflammation in a statistically significant manner” in data set [2] (0.6 mg/ml ASA added 5 minutes before bradykinin (FIGS. 2A, 2B)); “resulted in an anti-inflammatory response” in data set [2] (0.6 mg/ml ASA added 10 minutes after bradykinin, measured 4 hours after bradykinin (FIGS. 1A, 1B)); “no statistical significance with respect to positive control” in data set [2] (6 mg/ml ASA added 5 minutes before bradykinin (FIG. 2A)); “increased the inflammatory response in a statistically significant matter” in data set [2] (6 mg/ml ASA added 10 minutes after bradykinin, measured 4 hours after bradykinin (FIG. 1A)). Further, the “PGE2 relative to maximum bradykinin-induced level” value in data set [2] (setting [4]) was “increased”. Moreover, the “PGE-2 levels (bradykinin induced)” value in data set [2] (setting [5]) is recorded as “significantly decreasing”. The “TEER (barrier function of the epithelia)” value in data set [3] is listed as < 100 Ω·cm^2.

(Values after patent US20220313710A1, “COMPOSITIONS AND METHODS USING NON-STEROIDAL ANTI-INFLAMMATORY DRUGS” (APPLIED BIOLOGICAL LABORATORIES, INC., priority 2019, published 2022).)
